Source: US20260125346A1, “Isoquinolinone Derivatives and 4H-Quinolizinone Derivatives and Pharmaceutical Compositions Thereof for the Treatment of Disease” (BeOne Medicines I GmbH, priority 2023, published 2026)
pIC50: −log10 of the molar value.

What was measured:
[1] = target: PI3Kα (p110/p85) kinase (wild type, "WT") (Homo sapiens, UniProt P42336); assay: PI3Kα (p110/p85) kinase ADP-Glo Assay; format: biochemical; settings: 25 uM ATP
Description: PI3Kα (p110/p85) kinase ADP-Glo Assay. Certain compounds disclosed herein were tested for inhibition of PI3Kα (p110/p85) kinase (wild type, “WT”) in assays based on the ADP-Glo™ Kinase Assay methodology. The assays were carried out in 384-well white plates in a reaction mixture containing PI3Kα (p110/p85) kinase, 25 µM ATP, 5.35 µg/mL PI(4,5)P2:PS Lipid Kinase Substrate and […] compound in buffer containing 50 mM HEPES pH7.5, 50 mM NaCl, 3 mM MgCl2, 0.0025% BSA and 2 mM DTT. PI3Kα (p110/p85) kinase was incubated with Lipid Kinase Substrate and compound for 30 minutes at room temperature and the reaction was initiated by the addition of ATP. After reaction at room temperature for 120 minutes, ADP-Glo™ reagents were added to terminate the kinase reaction and deplete the remaining ATP according to the manufacture's instruction (Promega Corporation). After incubation at room temperature for 1 hour, Kinase Detection Reagent (prepared by reconstituting the lyophilized Kinase Detection Substrate with Kinase Detection Buffer of the kit) was added to convert the ADP to ATP and to allow for the newly synthesized ATP to be measured using a luciferase/luciferin reaction. After incubation at room temperature for 0.5 hour, chemiluminescence signals were recorded on a PHERAstar FSX plate reader (BMG Labtech). The chemiluminescence generated in this assay correlates to the amount of ADP generated in the kinase assay, indicating kinase activity. […] The IC50 for each compound was derived from fitting the data to the four-parameter logistic equation by Dotmatics.

[2] = target: PI3Kα (p110[H1047R]/p85) kinase (Homo sapiens, UniProt P42336, H1047R); assay: PI3Kα (p110[H1047R]/p85) kinase ADP-Glo Assay; format: biochemical; settings: 25 uM ATP; for selectivity: WT/H1047R: ADP-Glo Assay IC50 ratio
Description: PI3Kα (p110[H1047R]/p85) kinase ADP-Glo Assay. Certain compounds disclosed herein were tested for inhibition of PI3Kα (p110[H1047R]/p85) kinase in assays based on the ADP-Glo™ Kinase Assay methodology. The assays were carried out in 384-well white plates in a reaction mixture containing PI3Kα (p110[H1047R]/p85) kinase, 25 µM ATP, 5.35 µg/ml PI(4,5)P2:PS Lipid Kinase Substrate and […] compound in buffer containing 50 mM HEPES pH7.5, 50 mM NaCl, 3 mM MgCl2, 0.0025% BSA and 2 mM DTT. PI3Kα (p110[H1047R]/p85) kinase was incubated with Lipid Kinase Substrate and compound for 30 minutes at room temperature and the reaction was initiated by the addition of ATP.
After reaction at room temperature for 120 minutes, ADP-Glo™ reagents were added to terminate the kinase reaction and deplete the remaining ATP according to the manufacture's instruction (Promega Corporation). After incubation at room temperature for 1 hour, Kinase Detection Reagent (prepared by reconstituting the lyophilized Kinase Detection Substrate with Kinase Detection Buffer of the kit) was added to convert the ADP to ATP and to allow for the newly synthesized ATP to be measured using a luciferase/luciferin reaction. After incubation at room temperature for 0.5 hour, chemiluminescence signals were recorded on a PHERAstar FSX plate reader (BMG Labtech). The chemiluminescence generated in this assay correlates to the amount of ADP generated in the kinase assay, indicating kinase activity. […] The IC50 for each compound was derived from fitting the data to the four-parameter logistic equation by Dotmatics.

[3] = test system: PI3Kα H1047R mutated cell line T-47D; assay: Phospho-AKT (Ser473) Inhibition Assay (HTRF), T-47D; format: cell-based; settings: for pIC50: Homo sapiens, T47D, T-47D, 1 hour treatment, read-out: p-AKT Inhibition assay (S473) IC50 T-47D; for Selectivity: SK-BR-3/T-47D (p-AKT): p-AKT (S473) IC50 ratio
Description: (§1) Cell Culture Maintenance. The T-47D (ATCC, HTB-133) cell line was obtained from the American Type Culture Collection. Cells were maintained in RPMI1640 medium (Gibco, REF #22400105) supplemented with 10% Fetal Bovine Serum (Gibco, REF #10091148). Cultures were maintained in a humidified incubator at 37° C. under 5% CO2/95% air.
(§2) Phospho-AKT Inhibition Assay. HTRF Phospho-AKT (Ser473) detection kit (Cisbio, REF #64AKSPEH) was used in phosphor-AKT inhibition assay. For compound screening, PI3Kα H1047R mutated cell line T-47D and WT cell line SK-BR-3 cells were seeded at a density of 3×10^4 cells per well in 96 well plate (Costar, REF #3599) in 95 μL of assay medium (MEM medium (Gibco, REF #12561-056) with 1×NEAA (Gibco, REF #11140-050), 1 mM sodium pyruvate (Gibco, REF #11360-070), and 1 g/ml human insulin (Topscience, REF #T8221)), overnight. Compounds dissolved in 10 mM stock solutions in DMSO were serially diluted 1:3 in DMSO to generate an 11-point dilution series and plated using an INTEGRA ASSIST PLUS pipetting robot. A 20× intermediate compound dilution plate in RPMI1640 medium (200 M starting compound concentration in 2% DMSO) was then prepared. Five μL of intermediate serially diluted compounds were added to the cell plate to final concentrations ranging from […] to 0.1 nM in 0.1% DMSO. 0.1% DMSO alone was used to establish the maximum signal and GDC0077 at final concentration of 10 μM was used as a reference compound for minimum signal. After 1 hour treatment, removed medium and added 50 μL of supplemented lysis buffer (1×) immediately. Incubated for at least 30 minutes at room temperature under shaking. Transferred 16 μL of cell lysate from the 96-well cell-culture plate to a 384-white detection plate (PerkinElmer, Optiplate 384, 6007299). Added 4 μL of premixed antibody solutions prepared in the detection buffer. Incubated 4 hours at room temperature in dark. The plates were read on PHERAstar FSX Microplate reader (BMG LABTECH, Inc.) using standard HTRF settings.
(§3) Relative IC50 values were determined using luminescence units by calculating percent inhibition with respect to the in-plate “MIN” (GDC0077 reference control) and “MAX” (DMSO) controls. The data were analyzed using a 4-parameter nonlinear logistic equation (four-parameter logistic concentration-response curve): Y=bottom+[(top−bottom)/1+(X/IC50) slope] • where Y=% inhibition, X=concentration of inhibitor, bottom=minimum value of y attained by curve-fit, top=maximum value of y attained by curve-fit and slope=steepness of curve at the IC50.

WT cell line SK-BR-3 = assay: Phospho-AKT (Ser473) Inhibition Assay (HTRF), SK-BR-3; format: cell-based; settings: Homo sapiens; SK-BR-3, 1 hour treatment; read-out: p-AKT Inhibition assay (S473) IC50 SK-BR-3
Description: The SK-BR-3 (ATCC, HTB-30) cell line was obtained from the American Type Culture Collection. Cells were maintained in McCoy' 5A medium (Gibco, REF #16600108) supplemented with 10% Fetal Bovine Serum. Cultures were maintained in a humidified incubator at 37° C. under 5% CO2/95% air.
as §2, §3

[4] = test system: PI3Kα H1047R mutated cell line T-47D cells; assay: Cell Proliferation Assay (CellTiter-Glo), T-47D; format: cell-based; settings: Homo sapiens, T47D, 72 h; T-47D, 3 days treatment
Description: as §1
Cell Proliferation Assay. PI3Kα H1047R mutated cell line T-47D cells and WT cell line SK-BR-3 were seeded at a density of 3×10^3 cells per well in 96 well plate (Xinyou Biotechnology, 062096) in 95 μL of culture medium, overnight. Compounds dissolved in 10 mM stock solutions in DMSO were serially diluted 1:3 in DMSO to generate a 9-point dilution series and plated using an INTEGRA ASSIST Plus pipetting robot. A 20× intermediate compound dilution plate in RPMI1640 medium (200 M starting compound concentration in 2% DMSO) was then prepared. Five μL of intermediate serially diluted compounds were added to the cell plate to final concentrations ranging from […] to 1 nM in 0.1% DMSO. 0.1% DMSO alone was used to establish the maximum signal and medium without cells was for minimum signal. After 3 days treatment, equilibrated the plate and its contents at room temperature for approximately 30 minutes. Added 30 μL CellTiter-Glo® Reagent (Promega, REF #G7571) to each well. Then mixed contents for 5 min on plate shaker to induce cell lysis. Incubated at room temperature for 10 minutes to stabilize luminescent signal. The plates were read on PHERAstar FSX Microplate reader using standard luminescence settings.
Relative IC50 values were determined using luminescence units by calculating percent inhibition with respect to the in-plate “MIN” (medium only) and “MAX” (0.1% DMSO) controls. The data were analyzed using a 4-parameter nonlinear logistic equation (four-parameter logistic concentration-response curve): Y=bottom+[(top−bottom)/1+(X/IC50) slope] • where Y=% inhibition, X=concentration of inhibitor, bottom=minimum value of y attained by curve-fit, top=maximum value of y attained by curve-fit and slope=steepness of curve at the IC50.

Sequence of PI3Kα (p110/p85) kinase (wild type, "WT") (P42336 whole entry): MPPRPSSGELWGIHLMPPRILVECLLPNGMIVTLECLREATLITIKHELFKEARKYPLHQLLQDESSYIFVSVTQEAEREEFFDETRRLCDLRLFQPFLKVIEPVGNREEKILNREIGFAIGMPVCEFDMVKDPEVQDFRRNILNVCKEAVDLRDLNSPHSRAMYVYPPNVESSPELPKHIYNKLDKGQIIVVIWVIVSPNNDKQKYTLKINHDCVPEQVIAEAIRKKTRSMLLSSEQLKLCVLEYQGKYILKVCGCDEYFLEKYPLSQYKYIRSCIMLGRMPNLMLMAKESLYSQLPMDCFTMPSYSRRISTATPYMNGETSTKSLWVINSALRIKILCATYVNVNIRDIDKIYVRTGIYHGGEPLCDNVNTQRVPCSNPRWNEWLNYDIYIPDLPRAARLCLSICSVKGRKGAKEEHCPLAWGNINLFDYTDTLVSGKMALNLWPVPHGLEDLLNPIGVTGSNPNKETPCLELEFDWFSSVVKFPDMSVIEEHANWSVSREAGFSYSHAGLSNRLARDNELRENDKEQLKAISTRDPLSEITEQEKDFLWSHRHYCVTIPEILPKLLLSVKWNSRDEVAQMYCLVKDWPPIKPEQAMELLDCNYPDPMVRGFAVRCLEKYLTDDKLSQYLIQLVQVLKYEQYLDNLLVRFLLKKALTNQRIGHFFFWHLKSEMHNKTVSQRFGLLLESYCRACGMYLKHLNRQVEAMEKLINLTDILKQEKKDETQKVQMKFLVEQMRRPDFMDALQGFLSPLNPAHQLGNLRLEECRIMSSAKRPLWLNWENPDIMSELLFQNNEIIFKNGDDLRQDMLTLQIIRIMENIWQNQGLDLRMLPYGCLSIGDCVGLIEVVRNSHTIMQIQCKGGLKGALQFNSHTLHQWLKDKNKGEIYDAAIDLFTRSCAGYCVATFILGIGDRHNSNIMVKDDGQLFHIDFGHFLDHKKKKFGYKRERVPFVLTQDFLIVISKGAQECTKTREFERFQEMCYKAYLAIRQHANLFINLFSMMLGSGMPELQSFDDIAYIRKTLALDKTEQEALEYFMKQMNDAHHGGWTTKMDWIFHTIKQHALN
Sequence of PI3Kα (p110/p85) kinase (wild type, "WT") (P27986 whole entry partner): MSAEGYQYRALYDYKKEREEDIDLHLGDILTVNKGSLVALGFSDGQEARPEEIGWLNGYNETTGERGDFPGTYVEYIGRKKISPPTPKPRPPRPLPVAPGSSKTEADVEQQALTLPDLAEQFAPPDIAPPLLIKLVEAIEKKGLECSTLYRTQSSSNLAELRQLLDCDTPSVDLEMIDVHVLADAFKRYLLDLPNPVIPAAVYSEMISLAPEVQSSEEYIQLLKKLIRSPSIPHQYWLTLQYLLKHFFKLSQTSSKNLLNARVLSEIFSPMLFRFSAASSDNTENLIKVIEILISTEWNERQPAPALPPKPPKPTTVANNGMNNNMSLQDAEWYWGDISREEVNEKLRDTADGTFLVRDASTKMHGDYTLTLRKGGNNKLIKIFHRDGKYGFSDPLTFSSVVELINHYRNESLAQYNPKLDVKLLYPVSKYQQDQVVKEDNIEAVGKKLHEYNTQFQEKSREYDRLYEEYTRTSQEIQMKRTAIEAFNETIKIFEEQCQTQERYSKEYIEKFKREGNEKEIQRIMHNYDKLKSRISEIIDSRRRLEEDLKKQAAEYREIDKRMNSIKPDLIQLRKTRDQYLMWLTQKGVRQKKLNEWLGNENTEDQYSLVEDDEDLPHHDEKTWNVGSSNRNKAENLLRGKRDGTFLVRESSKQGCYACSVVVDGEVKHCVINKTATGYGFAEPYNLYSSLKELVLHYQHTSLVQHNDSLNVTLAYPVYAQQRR
Sequence of PI3Kα (p110[H1047R]/p85) kinase (P42336 whole entry H1047R): as the sequence (P42336 whole entry) above, with H1047R counted along it
Sequence of PI3Kα (p110[H1047R]/p85) kinase (P27986 whole entry partner): as the sequence (P27986 whole entry partner) above

SMILES	pIC50 [1]	pIC50 [2]	selectivity: WT/H1047R [2]	pIC50 [3]	pIC50 (WT cell line SK-BR-3)	Selectivity: SK-BR-3/T-47D (p-AKT) [3]	pIC50 [4]
Cc1cc(C(C)Nc2ccccc2C(=O)O)c2cc(-c3cnc(O)nc3)n(C)c(=O)c2c1 (centres unmarked) [Example 85, 2-((1-(3-(2-hydroxypyrimidin-5-yl)-2,7-dimethyl-1-oxo-1,2-dihydroisoquinolin-5-yl)ethyl)amino)benzoic acid]	4.57	5.96	24.3	< 5.00	< 5.00		
Cc1cc([C@@H](C)Nc2ccccc2C(=O)O)c2cc(-c3ccc(C(C)(C)O)cc3)n(C)c(=O)c2c1 [Example 98, (R)-2-((1-(3-(4-(2-hydroxypropan-2-yl)phenyl)-2,7-dimethyl-1-oxo-1,2-dihydroisoquinolin-5-yl)ethyl)amino)benzoic acid]	5.13	6.36	17.0				
COc1ncc(-c2cc3c([C@H](C)Nc4ccccc4C(=O)O)cc(C)cc3c(=O)n2C)cc1F [Example 60, (S)-2-((1-(3-(5-fluoro-6-methoxypyridin-3-yl)-2,7-dimethyl-1-oxo-1,2-dihydroisoquinolin-5-yl)ethyl)amino)benzoic acid]	4.62	4.79	1.5				
Cc1cc(C(C)Nc2ccccc2C(=O)O)c2cc(-c3ccccc3C(N)=O)n(C)c(=O)c2c1 (centres unmarked) [Example 90, 2-((1-(3-(2-carbamoylphenyl)-2,7-dimethyl-1-oxo-1,2-dihydroisoquinolin-5-yl)ethyl)amino)benzoic acid]	4.05	5.71	46.0				
Cc1cc(C(C)Nc2ccccc2C(=O)O)c2cc(C#CC3CCCCC3)n(C)c(=O)c2c1 (centres unmarked) [Example 28, 2-((1-(3-(cyclohexylethynyl)-2,7-dimethyl-1-oxo-1,2-dihydroisoquinolin-5-yl)ethyl)amino)benzoic acid]	< 4.00	6.30	>198	6.33	5.19	17	
Cc1cc(C(C)Nc2cnccc2C(=O)O)c2cc(-c3ccc(F)cc3)n(C)c(=O)c2c1 (centres unmarked) [Example 54, 3-((1-(3-(4-fluorophenyl)-2,7-dimethyl-1-oxo-1,2-dihydroisoquinolin-5-yl)ethyl)amino)isonicotinic acid]	< 4.00	5.03	>10				
Cc1cc(C(C)Nc2ccccc2C(=O)O)c2cc(C(=O)Nc3ccccc3)n(C)c(=O)c2c1 (centres unmarked) [Example 42, 2-((1-(2,7-dimethyl-1-oxo-3-(phenylcarbamoyl)-1,2-dihydroisoquinolin-5-yl)ethyl)amino)benzoic acid]	4.14	6.01	73.8	6.53			5.45
Cc1cc(C(C)Nc2csc3ccccc23)c2cc(-c3ccccc3)n(C)c(=O)c2c1 (centres unmarked) [Example 93, 5-(1-(benzo[b]thiophen-3-ylamino)ethyl)-2,7-dimethyl-3-phenylisoquinolin-1(2H)-one]	< 4.00	< 4.00					
Cc1cc([C@H](C)Nc2ccccc2C(=O)O)c2cc(-c3cnc(C(C)(C)O)nc3)n(C)c(=O)c2c1 [Example 68, (S)-2-((1-(3-(2-(2-hydroxypropan-2-yl)pyrimidin-5-yl)-2,7-dimethyl-1-oxo-1,2-dihydroisoquinolin-5-yl)ethyl)amino)benzoic acid]	4.46	4.66	1.6				
CC#Cc1cc2c(C(C)Nc3ccccc3C(=O)O)cc(C)cc2c(=O)n1C (centres unmarked) [Example 27, 2-((1-(2,7-dimethyl-1-oxo-3-(prop-1-yn-1-yl)-1,2-dihydroisoquinolin-5-yl)ethyl)amino)benzoic acid]	4.22	6.12	79	6.61	< 5.00	>21	
Cc1cc([C@H](C)Nc2ccccc2C(=O)O)c2cc(-c3ccc(F)cc3)n(CC#N)c(=O)c2c1 [Example 65, (S)-2-((1-(2-(cyanomethyl)-3-(4-fluorophenyl)-7-methyl-1-oxo-1,2-dihydroisoquinolin-5-yl)ethyl)amino)benzoic acid]	< 4.00	< 4.00					
